Measured values as given in ChEMBL document CHEMBL1201862, “PubChem BioAssay data set” (2004).
Calls of active or inactive are those of the source.

How the values were obtained:
[1] = molecular target: T1, DNA repair protein RAD52 homolog (Homo sapiens, UniProt P43351); type: functional, biochemical
T1 sequence (P43351 whole entry): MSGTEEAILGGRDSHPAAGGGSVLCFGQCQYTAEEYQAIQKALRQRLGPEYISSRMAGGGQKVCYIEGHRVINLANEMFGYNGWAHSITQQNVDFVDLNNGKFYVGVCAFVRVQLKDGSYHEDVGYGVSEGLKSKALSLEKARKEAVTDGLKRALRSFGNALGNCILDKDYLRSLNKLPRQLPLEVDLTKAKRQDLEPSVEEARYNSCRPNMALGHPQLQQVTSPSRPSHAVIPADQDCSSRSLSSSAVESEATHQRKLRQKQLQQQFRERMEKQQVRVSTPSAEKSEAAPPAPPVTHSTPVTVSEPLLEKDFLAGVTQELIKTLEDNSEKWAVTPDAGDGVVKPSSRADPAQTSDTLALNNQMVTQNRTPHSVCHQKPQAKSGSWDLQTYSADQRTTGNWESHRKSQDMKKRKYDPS

[2] = molecular target: T2, Ubiquitin-conjugating enzyme E2 N (Homo sapiens, UniProt P61088); type: functional;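 further: Dose-response confirmation in a TR-FRET assay detecting UBC13-driven polyubiquitin chain formation, inhibition measured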
T2 sequence (P61088 whole entry): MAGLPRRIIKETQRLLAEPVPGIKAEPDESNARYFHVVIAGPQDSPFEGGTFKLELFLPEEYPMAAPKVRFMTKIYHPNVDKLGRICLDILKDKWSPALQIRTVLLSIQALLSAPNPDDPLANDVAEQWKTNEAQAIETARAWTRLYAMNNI

[3] = cytotoxicity toward NIH3T3 fibroblasts, dose response, counter-screen, cell-based, ATP luminescence, mouse fibroblasts (AID 2010); type: functional;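 further: cells exposed to compound for about 90 hours before reading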
[4] = inhibitors of intracellular T. cruzi replication, confirmation, NIH3T3 host cells, beta-gal luminescence (AID 2044); type: functional, cell-based;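 further: intracellular parasites grown in NIH/3T3 mouse fibroblasts as host cells; luminescent beta-galactosidase reporter signal from transgenic T. cruzi replicating inside host cells; inhibitors lower the luminescence signal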
[5] = molecular target: T3, Polyadenylate-binding protein 1 (Homo sapiens, UniProt P11940); test: PABP1 MLLE–PAM2 binding inhibitor potency, dose response, biochemical, fluorescence polarization, FITC-PAM2 peptide (AID 602259); type: functional; conditions: read-out: IC50_Mean
[6] = molecular target: T3, Polyadenylate-binding protein 1; test: PABP1 MLLE–PAM2 interaction inhibitors, dose response, miRNA deadenylation inhibitor project, biochemical, fluorescence polarization, Cy5-PAM2 peptide, secondary (AID 602260); type: functional; conditions: read-out: IC50_Mean
[7] = molecular target: T4, High affinity choline transporter 1 (Homo sapiens, UniProt Q9GZV3); test: CHT inhibitors, dose response, cell-based, 5-point CRC, membrane potential dye (AID 504840); type: functional
T4 sequence (Q9GZV3 whole entry): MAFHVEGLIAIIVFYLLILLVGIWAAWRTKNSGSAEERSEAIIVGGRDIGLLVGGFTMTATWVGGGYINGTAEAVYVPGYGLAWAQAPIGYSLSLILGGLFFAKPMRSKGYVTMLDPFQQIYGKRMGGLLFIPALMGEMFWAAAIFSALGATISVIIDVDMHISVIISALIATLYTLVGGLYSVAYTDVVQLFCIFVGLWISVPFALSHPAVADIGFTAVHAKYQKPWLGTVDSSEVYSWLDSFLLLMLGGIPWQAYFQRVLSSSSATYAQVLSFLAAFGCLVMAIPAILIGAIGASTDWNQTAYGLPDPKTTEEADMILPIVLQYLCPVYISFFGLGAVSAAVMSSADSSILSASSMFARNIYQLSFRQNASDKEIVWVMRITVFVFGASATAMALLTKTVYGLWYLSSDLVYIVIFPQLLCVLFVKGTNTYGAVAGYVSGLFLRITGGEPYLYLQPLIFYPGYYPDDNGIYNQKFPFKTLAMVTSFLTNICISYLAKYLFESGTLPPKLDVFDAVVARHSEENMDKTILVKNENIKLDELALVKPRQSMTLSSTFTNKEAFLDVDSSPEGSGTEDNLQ

[8] = C. albicans growth with fluconazole, confirmation, fluorescence, retest (AID 2467); type: functional, cell-based
[9] = NIH-3T3 fibroblast cytotoxicity, dose response, cytotoxicity control, cell-based, fluorescence, Alamar Blue, secondary assay (AID 2327); type: functional;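 further: NIH-3T3 mouse fibroblasts cultured with fluconazole at 8 µg/mL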
[10] = molecular target: T5, Short transient receptor potential channel 4 (Mus musculus, UniProt Q9QUQ5); test: mouse TRPC4 channel activators, dose response, cell-based, HEK293 TRPC4/mu-opioid, Fluo-4 calcium (AID 434937); type: functional
T5 sequence (Q9QUQ5 whole entry): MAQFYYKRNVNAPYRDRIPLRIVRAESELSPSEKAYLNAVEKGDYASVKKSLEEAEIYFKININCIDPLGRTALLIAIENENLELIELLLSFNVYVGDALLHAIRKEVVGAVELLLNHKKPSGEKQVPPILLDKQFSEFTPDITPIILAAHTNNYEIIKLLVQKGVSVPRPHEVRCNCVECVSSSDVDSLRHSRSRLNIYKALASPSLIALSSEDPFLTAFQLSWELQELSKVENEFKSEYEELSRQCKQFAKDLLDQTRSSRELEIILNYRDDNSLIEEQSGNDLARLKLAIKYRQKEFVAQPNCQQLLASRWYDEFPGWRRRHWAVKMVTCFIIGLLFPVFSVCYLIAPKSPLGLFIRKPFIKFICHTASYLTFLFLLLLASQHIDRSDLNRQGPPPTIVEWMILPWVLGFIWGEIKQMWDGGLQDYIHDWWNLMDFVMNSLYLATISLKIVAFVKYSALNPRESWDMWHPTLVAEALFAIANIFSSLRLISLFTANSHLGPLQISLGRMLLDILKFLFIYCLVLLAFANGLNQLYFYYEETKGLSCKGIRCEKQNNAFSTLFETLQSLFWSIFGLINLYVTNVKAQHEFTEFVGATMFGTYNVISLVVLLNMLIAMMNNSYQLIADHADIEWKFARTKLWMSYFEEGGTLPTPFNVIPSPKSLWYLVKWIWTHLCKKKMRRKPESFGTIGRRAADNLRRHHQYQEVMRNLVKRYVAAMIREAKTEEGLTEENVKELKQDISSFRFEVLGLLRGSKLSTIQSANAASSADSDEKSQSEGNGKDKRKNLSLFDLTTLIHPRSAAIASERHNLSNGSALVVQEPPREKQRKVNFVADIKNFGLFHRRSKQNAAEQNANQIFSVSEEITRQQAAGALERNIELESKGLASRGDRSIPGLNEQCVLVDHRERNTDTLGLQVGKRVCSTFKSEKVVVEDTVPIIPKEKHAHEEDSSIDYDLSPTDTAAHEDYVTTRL

[11] = system: Streptococcus sp. 'group A'; test: growth inhibition of control SK(-) GAS strain, dose response, counter-screen for streptokinase expression inhibitor project, luminescence, kanamycin, BacTiterGlo, confirmation (AID 1900); type: functional, organism-based
Streptococcus = test: Group A Streptococcus viability loss, dose response, counter-screen for streptokinase expression inhibitor project, luminescence, BacTiterGlo (AID 1915); type: functional, organism-based;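 further: potency for reduction of bacterial viability or growth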
Aminopeptidase N = molecular target: T6, Aminopeptidase N (Plasmodium falciparum FcB1/Columbia, UniProt O96935); test: P. falciparum M1AAP inhibitors, biochemical, fluorogenic H-Leu-NHMec substrate, 1536-well (AID 1445); parameters: species or system Plasmodium falciparum 3D7, 3D7
T6 sequence (O96935 whole entry): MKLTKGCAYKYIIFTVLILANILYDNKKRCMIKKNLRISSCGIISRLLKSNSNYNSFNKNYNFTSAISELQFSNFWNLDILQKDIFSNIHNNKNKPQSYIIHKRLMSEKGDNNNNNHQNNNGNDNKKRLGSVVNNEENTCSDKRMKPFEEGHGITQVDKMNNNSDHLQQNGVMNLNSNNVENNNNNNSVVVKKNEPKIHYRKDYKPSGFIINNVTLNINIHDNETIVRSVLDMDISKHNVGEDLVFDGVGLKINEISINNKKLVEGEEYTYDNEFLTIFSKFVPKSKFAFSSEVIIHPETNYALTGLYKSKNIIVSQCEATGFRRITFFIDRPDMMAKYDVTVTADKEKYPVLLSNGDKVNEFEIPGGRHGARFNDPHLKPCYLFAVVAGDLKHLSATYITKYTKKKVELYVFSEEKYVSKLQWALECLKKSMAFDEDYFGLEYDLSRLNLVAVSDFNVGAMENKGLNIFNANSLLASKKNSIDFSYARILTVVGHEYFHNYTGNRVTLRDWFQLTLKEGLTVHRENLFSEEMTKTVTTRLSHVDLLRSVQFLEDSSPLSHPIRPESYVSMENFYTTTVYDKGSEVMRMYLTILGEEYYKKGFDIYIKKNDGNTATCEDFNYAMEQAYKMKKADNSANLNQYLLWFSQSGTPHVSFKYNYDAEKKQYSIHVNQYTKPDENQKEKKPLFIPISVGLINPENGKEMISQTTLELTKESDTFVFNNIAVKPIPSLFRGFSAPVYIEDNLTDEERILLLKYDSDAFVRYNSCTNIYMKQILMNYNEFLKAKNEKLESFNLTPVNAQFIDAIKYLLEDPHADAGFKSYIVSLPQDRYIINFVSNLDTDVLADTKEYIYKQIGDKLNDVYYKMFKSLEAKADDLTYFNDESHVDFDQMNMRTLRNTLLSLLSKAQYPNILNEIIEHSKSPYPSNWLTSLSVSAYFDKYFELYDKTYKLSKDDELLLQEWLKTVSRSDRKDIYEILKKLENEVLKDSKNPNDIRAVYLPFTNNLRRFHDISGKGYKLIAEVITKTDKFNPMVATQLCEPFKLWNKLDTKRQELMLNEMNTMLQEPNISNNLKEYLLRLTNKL

Paired box protein Pax-8 = Paired box protein Pax-8 (Homo sapiens, UniProt Q06710); test: inhibitors of PAX8-driven TPO luciferase reporter, dose response, RMG-I cells, cherry-pick (AID 687027); type: functional, cell-based;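 further: luciferase reporter driven by Pax8 target thyroperoxidase promoter measured by SteadyGlo luminescence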
[12] = Fluorescence-based cell-based high throughput dose response assay for inhibitors of the interaction of nucleotide-binding oligomerization domain containing 2 (NOD2) and the receptor-interacting serine-threonine kinase 2 (RIPK2).; type: functional; conditions: Homo sapiens
[13] = ZM109 Env clade C HIV-1 fusion inhibitors, dose response, HeLa effector, CEM target cells, luciferase, cherry-pick (AID 652058); type: functional, cell-based
[14] = inhibitors of clade B AD8 Env fusion, dose response, cell-based, cherry-pick (AID 652062); type: functional;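 further: luciferase signal from cell-cell fusion driven by HIV-1 clade B AD8 Env; potency is for inhibitors of fusion seen as a drop in luminescence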

T3 sequence (P11940 whole entry): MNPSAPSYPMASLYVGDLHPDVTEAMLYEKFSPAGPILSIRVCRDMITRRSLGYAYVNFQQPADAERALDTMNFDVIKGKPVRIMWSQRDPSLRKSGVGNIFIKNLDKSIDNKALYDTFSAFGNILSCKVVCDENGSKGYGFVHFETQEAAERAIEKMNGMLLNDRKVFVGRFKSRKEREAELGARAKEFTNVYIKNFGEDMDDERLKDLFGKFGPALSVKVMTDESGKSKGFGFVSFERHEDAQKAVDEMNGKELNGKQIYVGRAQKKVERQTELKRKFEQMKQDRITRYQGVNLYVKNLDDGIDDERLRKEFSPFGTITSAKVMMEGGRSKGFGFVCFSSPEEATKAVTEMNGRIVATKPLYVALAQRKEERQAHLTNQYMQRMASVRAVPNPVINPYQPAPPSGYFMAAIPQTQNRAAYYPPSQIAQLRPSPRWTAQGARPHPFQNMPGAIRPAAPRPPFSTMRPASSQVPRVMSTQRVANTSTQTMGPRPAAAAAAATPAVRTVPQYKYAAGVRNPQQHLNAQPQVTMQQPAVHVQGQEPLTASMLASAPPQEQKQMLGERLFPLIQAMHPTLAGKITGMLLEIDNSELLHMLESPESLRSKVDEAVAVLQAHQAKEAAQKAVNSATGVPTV
Sequence of Paired box protein Pax-8 (Q06710 whole entry, the tested form may be a part): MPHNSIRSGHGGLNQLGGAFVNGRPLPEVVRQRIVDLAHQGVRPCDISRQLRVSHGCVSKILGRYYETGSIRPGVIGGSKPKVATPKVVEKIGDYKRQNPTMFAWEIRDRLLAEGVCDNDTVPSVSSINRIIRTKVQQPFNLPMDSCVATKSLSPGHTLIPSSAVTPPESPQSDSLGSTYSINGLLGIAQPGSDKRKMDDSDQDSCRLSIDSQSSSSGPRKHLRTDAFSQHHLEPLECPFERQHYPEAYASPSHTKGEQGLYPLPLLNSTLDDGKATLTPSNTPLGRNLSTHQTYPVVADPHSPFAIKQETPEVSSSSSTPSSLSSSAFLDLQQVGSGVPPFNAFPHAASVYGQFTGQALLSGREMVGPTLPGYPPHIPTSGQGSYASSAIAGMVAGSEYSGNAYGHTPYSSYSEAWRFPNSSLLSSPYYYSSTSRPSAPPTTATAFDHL

Which AC50 [1] does the source give for `COc1cccc(OCC(O)CN2CCN(CCN3C(=O)c4cccc5cccc(c45)C3=O)CC2)c1` (configuration not stated) here?
Its AC50 is 18.2 µM (active).

What about the IC50 [2] of the same compound?
Its IC50 is > 20 µM (inactive).

And the EC50 [3]?
Its EC50 is > 60 µM (inconclusive).

And the EC50 [4]?
Its EC50 is 1.59 µM (active).

Which IC50 [5] does the source give for `Cc1ccc(CN(C)C(=O)COC(=O)CSc2ccc([N+](=O)[O-])cc2)cc1` here?
Its IC50 is > 66 µM (inactive).

And the IC50 [6]?
The IC50 was > 66 µM (inactive).

For `O=C(NCCCN1CCOCC1)c1ccc(Cl)c(S(=O)(=O)N2CCCCCC2)c1`, which IC50 [7] is on record?
Its IC50 is 12.3 µM (active).

With `O=C1NC(=O)/C(=C/c2cccc3ccccc23)S1` as the compound, how does the EC50 [8] read?
Its EC50 is 0.76 µM (active).

And the EC50 [9]?
The EC50 was > 160 µM (inactive).

And the IC50 [7]?
The IC50 was 11 µM (active).

For `Cc1onc(-c2ccccc2)c1C(=O)NC(=S)NNC(=O)c1ccco1`, which EC50 [10] is on record?
The EC50 was 10.6 µM (active).

And the EC50 [11]?
Its EC50 is 2.79 µM (active).

What about the EC50 (Streptococcus) of the same compound?
Its EC50 is 10.6 µM (active).

What about the IC50 [7] of the same compound?
Its IC50 is 15.8 µM (active).

With `Cc1nn2c(N3CCN(C)CC3)c3c(nc2c1-c1ccccc1)CCCC3` as the compound, how does the IC50 (Aminopeptidase N) read?
Its IC50 is 61.7 µM (active).

And the IC50 [7]?
The IC50 was 10.1 µM (active).

For `CCOC(=O)c1c(C)n(-c2ccc(C)cc2)c2ccc(OCC(O)CNCCCO)cc12` (configuration not stated), which AC50 [1] is on record?
Its AC50 is 6.8 µM (active).

What about the IC50 [2] of the same compound?
The IC50 was > 20 µM (inactive).

With `O=C(CSc1ccc2c(c1)OCCO2)NCCc1ccc(Cl)cc1Cl` as the compound, how does the IC50 [5] read?
Its IC50 is > 66 µM (inactive).

And the IC50 [6]?
The IC50 was > 66 µM (inactive).

With `C=CC(=O)N1C/C(=C/c2ccc(Cl)cc2)C(=O)/C(=C\c2ccc(Cl)cc2)C1` as the compound, how does the AC50 (Paired box protein Pax-8) read?
The AC50 was 1.82 µM (active).

What about the IC50 [12] of the same compound?
Its IC50 is 2.58 µM (active).

With `CC(=O)NCC/N=C(\C)c1sc2ccccc2c1O` as the compound, how does the IC50 [5] read?
The IC50 was > 66 µM (inactive).

And the IC50 [6]?
Its IC50 is > 66 µM (inactive).

For `CC(=O)C1=C(C)NC(=S)NC1c1ccccc1` (configuration not stated), which AC50 [13] is on record?
Its AC50 is 27 µM (active).

And the AC50 [14]?
Its AC50 is 45 µM (active).

Which AC50 [1] does the source give for `CNC12CCc3cc(OC)c(OC)c(c31)-c1cc3c(cc1C2)OCO3` (configuration not stated) here?
Its AC50 is 9.25 µM (active).
